pIC50: −log10 of the molar value. Where two headings read alike, the source gives them in different places. Starred links: 1 amine or outer side, 2 acyl side, 3 side chain; linkers in the order of their positions; H or OH if unused. Positions of bridges follow the written chain, without caps; N, C: chain ends. Non-standard residues stand in square brackets, D forms with d. Residues, ends and D or L forms follow the SMILES beside them. Groups on a side chain read outwards from the residue. *: point of attachment. Trp(1-Me) = Cn1cc(C[C@H](N)C(=O)O)c2ccccc21; C18 diacid = O=C(O)CCCCCCCCCCCCCCCCC(=O)*; γGlu = O=C(O)[C@H](CCC(=O)[*:2])N[*:1]; AEEA = NCCOCCOCC(=O)O; Sar = CNCC(=O)O
Tested on: classical complement pathway
Assay: In vitro haemolysis assay (inhibition of classical complement pathway)
Format: cell-based, human
Details: human serum, sensitized sheep red blood cells
Procedure, shortened: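 Compound dilutions preincubated 15 min at room temperature with diluted human serum (titrated per batch for 70-90% maximal haemolysis), then antibody-sensitized sheep RBC (10^7/well) added for 30 min at 37 °C in Tris/casein buffer, pH 7.4. Stopped with EDTA; haemolysis read at 405 nm; IC50 by 4PL fit.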

[1] = Table 3, given as upper bounds, read-out: IC50, inhibition of hemolysis
[2] = Table 4, valine 3 vs isoleucine 3 pairs, read-out: CP hemolysis IC50

`CC[C@H](C)[C@@H]1NC(=O)[C@@H](NC(=O)[C@H](Cc2ccccc2)NC(=O)[C@H](CCC(=O)O)NC(=O)[C@H](CO)NC(C)=O)CSSC[C@@H](C(=O)N(C)CC(=O)N[C@@H](CCC(=O)O)C(=O)NCC(=O)N[C@@H](CCC(=O)O)C(=O)N[C@@H](CO)C(=O)N[C@@H](CCC(=O)O)C(=O)N[C@@H](CO)C(=O)N[C@@H](CCCCNC(=O)CC[C@H](NC(=O)CNC(=O)CC[C@H](NC(=O)CCCCCCCCCCCCCCCCC(=O)O)C(=O)O)C(=O)O)C(N)=O)NC(=O)[C@H](CCCNC(=N)N)NC(=O)[C@H](Cc2c[nH]cn2)NC(=O)[C@H](CCC(=O)O)NC(=O)CNC(=O)[C@H](Cc2c[nH]c3ccccc23)NC(=O)[C@H](CC(=O)O)NC(=O)[C@H](CCC(N)=O)NC(=O)[C@H](Cc2cn(C)c3ccccc23)NC1=O` [Compound 139] (Ac-SEFCI[Trp(1-Me)]QDWGEHRC[Sar]EGESESK([γGlu-Gly-γGlu-C18 diacid])-NH2; disulfide 4-14) was tested, and the pIC50 [1] was > 7.00.
With `CC[C@H](C)[C@@H]1NC(=O)[C@@H](NC(=O)[C@H](Cc2ccccc2)NC(=O)[C@H](CCC(=O)O)NC(=O)[C@H](CO)NC(C)=O)CSSC[C@@H](C(=O)N(C)CC(=O)N[C@@H](CCC(=O)O)C(=O)NCC(=O)N[C@@H](CCC(=O)O)C(=O)NCCOCCOCC(=O)N[C@@H](CCC(=O)O)C(=O)N[C@@H](CO)C(=O)N[C@@H](CCCCNC(=O)CC[C@H](NC(=O)CNC(=O)CC[C@H](NC(=O)CCCCCCCCCCCCCCCCC(=O)O)C(=O)O)C(=O)O)C(N)=O)NC(=O)[C@H](CCCNC(=N)N)NC(=O)[C@H](Cc2c[nH]cn2)NC(=O)[C@H](CCC(=O)O)NC(=O)CNC(=O)[C@H](Cc2c[nH]c3ccccc23)NC(=O)[C@H](CC(=O)O)NC(=O)[C@H](CCC(N)=O)NC(=O)[C@H](Cc2cn(C)c3ccccc23)NC1=O` [Compound 140] (Ac-SEFCI[Trp(1-Me)]QDWGEHRC[Sar]EGE[AEEA]ESK([γGlu-Gly-γGlu-C18 diacid])-NH2; disulfide 4-14) the pIC50 [1] was > 7.00.
In the case of `CC[C@H](C)[C@@H]1NC(=O)[C@@H](NC(=O)[C@H](Cc2ccccc2)NC(=O)[C@H](CCC(=O)O)NC(=O)[C@H](CO)NC(C)=O)CSSC[C@@H](C(=O)N(C)CC(=O)N[C@@H](CCC(=O)O)C(=O)NCC(=O)N[C@@H](CCC(=O)O)C(=O)N[C@@H](CO)C(=O)N[C@@H](CCC(=O)O)C(=O)N[C@@H](CO)C(=O)N[C@@H](CCCCNC(=O)CC[C@H](NC(=O)CCCCCCCCCCCCCCCCC(=O)O)C(=O)O)C(N)=O)NC(=O)[C@H](CCCNC(=N)N)NC(=O)[C@H](Cc2c[nH]cn2)NC(=O)[C@H](CCC(=O)O)NC(=O)CNC(=O)[C@H](Cc2c[nH]c3ccccc23)NC(=O)[C@H](CC(=O)O)NC(=O)[C@H](CCC(N)=O)NC(=O)[C@H](Cc2cn(C)c3ccccc23)NC1=O` [Compound 141] (Ac-SEFCI[Trp(1-Me)]QDWGEHRC[Sar]EGESESK([γGlu-C18 diacid])-NH2; disulfide 4-14), the pIC50 [1] was > 7.00.
With `CC[C@H](C)[C@@H]1NC(=O)[C@@H](NC(=O)[C@H](Cc2ccccc2)NC(=O)[C@H](CCC(=O)O)NC(=O)[C@H](CO)NC(C)=O)CSSC[C@@H](C(=O)N[C@H](C(=O)N[C@@H](CCC(=O)O)C(=O)NCC(=O)N[C@@H](CCC(=O)O)C(=O)NCCOCCOCC(=O)N[C@@H](CCC(=O)O)C(=O)N[C@@H](CO)C(=O)N[C@@H](CCCCNC(=O)CC[C@H](NC(=O)CCCCCCCCCCCCCCCCC(=O)O)C(=O)O)C(N)=O)[C@@H](C)O)NC(=O)[C@H](CCCNC(=N)N)NC(=O)[C@H](Cc2c[nH]cn2)NC(=O)[C@H](CCC(=O)O)NC(=O)CNC(=O)[C@H](Cc2c[nH]c3ccccc23)NC(=O)[C@H](CC(=O)O)NC(=O)[C@H](CCC(N)=O)NC(=O)[C@H](Cc2cn(C)c3ccccc23)NC1=O` [Compound 142] (Ac-SEFCI[Trp(1-Me)]QDWGEHRCTEGE[AEEA]ESK([γGlu-C18 diacid])-NH2; disulfide 4-14) the pIC50 [1] was > 7.00.
With `CC[C@H](C)[C@@H]1NC(=O)[C@@H](NC(=O)[C@H](Cc2ccccc2)NC(=O)[C@H](CCC(=O)O)NC(=O)[C@H](CO)NC(C)=O)CSSC[C@@H](C(=O)N(C)CC(=O)N[C@@H](CCC(=O)O)C(=O)NCC(=O)N[C@@H](CCC(=O)O)C(=O)NCCOCCOCC(=O)NCCOCCOCC(=O)NCCOCCOCC(=O)N[C@@H](CCCCNC(=O)CC[C@H](NC(=O)CNC(=O)CC[C@H](NC(=O)CCCCCCCCCCCCCCCCC(=O)O)C(=O)O)C(=O)O)C(N)=O)NC(=O)[C@H](CCCNC(=N)N)NC(=O)[C@H](Cc2c[nH]cn2)NC(=O)[C@H](CCC(=O)O)NC(=O)CNC(=O)[C@H](Cc2c[nH]c3ccccc23)NC(=O)[C@H](CC(=O)O)NC(=O)[C@H](CCC(N)=O)NC(=O)[C@H](Cc2cn(C)c3ccccc23)NC1=O` [Compound 143] (Ac-SEFCI[Trp(1-Me)]QDWGEHRC[Sar]EGE[AEEA][AEEA][AEEA]K([γGlu-Gly-γGlu-C18 diacid])-NH2; disulfide 4-14) the pIC50 [1] was > 7.00.
With `CC[C@H](C)[C@@H]1NC(=O)[C@@H](NC(=O)[C@H](Cc2ccccc2)NC(=O)[C@H](CCC(=O)O)NC(=O)[C@H](CO)NC(C)=O)CSSC[C@@H](C(=O)N(C)CC(=O)N[C@@H](CCC(=O)O)C(=O)NCCOCCOCC(=O)NCCOCCOCC(=O)N[C@@H](CCCCNC(=O)CC[C@H](NC(=O)CNC(=O)CC[C@H](NC(=O)CCCCCCCCCCCCCCCCC(=O)O)C(=O)O)C(=O)O)C(N)=O)NC(=O)[C@H](CCCNC(=N)N)NC(=O)[C@H](Cc2c[nH]cn2)NC(=O)[C@H](CCC(=O)O)NC(=O)CN(C)C(=O)[C@H](Cc2c[nH]c3ccccc23)NC(=O)[C@H](CC(=O)O)NC(=O)[C@H](CCC(N)=O)NC(=O)[C@H](Cc2cn(C)c3ccccc23)NC1=O` [Compound 144, Ac-SEFC(1)I[1-Me-Trp]QDW[Sar]EHRC(1)[Sar]E[Peg3][Peg3]-K([17-carboxy-heptadecanoyl][γGlu]G[γGlu])-NH2] (Ac-SEFCI[Trp(1-Me)]QDW[Sar]EHRC[Sar]E[AEEA][AEEA]K([γGlu-Gly-γGlu-C18 diacid])-NH2; disulfide 4-14) the pIC50 [1] was > 7.00.
`CC[C@H](C)[C@@H]1NC(=O)[C@@H](NC(=O)[C@H](Cc2ccccc2)NC(=O)[C@H](CCC(=O)O)NC(C)=O)CSSC[C@@H](C(=O)N(C)CC(=O)N[C@@H](CCC(=O)O)C(=O)N[C@@H](C)C(=O)NCCOCCOCC(=O)NCCOCCOCC(=O)N[C@@H](CCCCNC(=O)CC[C@H](NC(=O)CNC(=O)CC[C@H](NC(=O)CCCCCCCCCCCCCCCCC(=O)O)C(=O)O)C(=O)O)C(N)=O)NC(=O)[C@H](CCCNC(=N)N)NC(=O)[C@H](Cc2c[nH]cn2)NC(=O)[C@H](CCC(=O)O)NC(=O)CNC(=O)[C@H](Cc2c[nH]c3ccccc23)NC(=O)[C@H](CC(=O)O)NC(=O)[C@H](CCC(N)=O)NC(=O)[C@H](Cc2cn(C)c3ccccc23)NC1=O` [Compound 145] (Ac-EFCI[Trp(1-Me)]QDWGEHRC[Sar]EA[AEEA][AEEA]K([γGlu-Gly-γGlu-C18 diacid])-NH2; disulfide 3-13) was tested, and the pIC50 [1] was > 7.00.
`CC[C@H](C)[C@H](N)C(=O)N[C@H]1CSSC[C@@H](C(=O)N[C@H](C(N)=O)[C@@H](C)O)NC(=O)[C@H](CCCN=C(N)N)NC(=O)[C@H](Cc2cnc[nH]2)NC(=O)[C@H](Cc2cnc[nH]2)NC(=O)CNC(=O)[C@H](Cc2c[nH]c3ccccc23)NC(=O)[C@H](CC(=O)O)NC(=O)[C@H](CCC(N)=O)NC(=O)[C@H](C(C)C)NC(=O)[C@H](C(C)C)NC1=O` [Compstatin] was tested, and the IC50 (Table 3, cells printed in μM, read-out: IC50, inhibition of hemolysis) was > 5 µM.
Molecule `CC[C@H](C)[C@H](NC(C)=O)C(=O)N[C@H]1CSSC[C@@H](C(=O)N[C@H](C(=O)NCC(=O)N[C@@H](C)C(=O)N[C@@H](CCC(=O)O)C(=O)N[C@@H](CO)C(N)=O)[C@@H](C)O)NC(=O)[C@H](CCCNC(=N)N)NC(=O)[C@H](Cc2c[nH]cn2)NC(=O)[C@H](CCC(=O)O)NC(=O)CNC(=O)[C@H](Cc2c[nH]c3ccccc23)NC(=O)[C@H](CC(=O)O)NC(=O)[C@H](CCC(N)=O)NC(=O)[C@H](Cc2c[nH]c3ccccc23)NC(=O)[C@H](C(C)C)NC1=O` [D, reference compound] (Ac-ICVWQDWGEHRCTGAES-NH2; disulfide 2-12) has a pIC50 [2] of 6.68.
For `CC[C@H](C)[C@H](NC(C)=O)C(=O)N[C@H]1CSSC[C@@H](C(=O)N[C@H](C(N)=O)[C@@H](C)O)NC(=O)[C@H](CO)NC(=O)[C@H](Cc2c[nH]cn2)NC(=O)[C@H](C)NC(=O)CNC(=O)[C@H](Cc2c[nH]c3ccccc23)NC(=O)[C@H](CC(=O)O)NC(=O)[C@H](CCC(N)=O)NC(=O)[C@H](Cc2c[nH]c3ccccc23)NC(=O)[C@H](C(C)C)NC1=O` [E, reference compound] (Ac-ICVWQDWGAHSCT-NH2; disulfide 2-12), the pIC50 [2] was < 6.00.
`CC[C@H](C)[C@H](NC(C)=O)C(=O)N[C@H]1CSSC[C@@H](C(=O)N[C@H](C(N)=O)[C@@H](C)O)NC(=O)[C@H](CO)NC(=O)[C@H](Cc2c[nH]cn2)NC(=O)[C@H](CCC(=O)O)NC(=O)CNC(=O)[C@H](Cc2c[nH]c3ccccc23)NC(=O)[C@H](CC(=O)O)NC(=O)[C@H](CCC(N)=O)NC(=O)[C@H](Cc2c[nH]c3ccccc23)NC(=O)[C@H](C(C)C)NC1=O` [F, reference compound] (Ac-ICVWQDWGEHSCT-NH2; disulfide 2-12) showed a pIC50 [2] of 6.27.
`CC[C@H](C)[C@H](NC(C)=O)C(=O)N[C@H]1CSSC[C@@H](C(=O)N[C@@H](CO)C(N)=O)NC(=O)[C@H](CCCNC(=N)N)NC(=O)[C@H](Cc2c[nH]cn2)NC(=O)[C@H](CCC(=O)O)NC(=O)CNC(=O)[C@H](Cc2c[nH]c3ccccc23)NC(=O)[C@H](CC(=O)O)NC(=O)[C@H](CCC(N)=O)NC(=O)[C@H](Cc2c[nH]c3ccccc23)NC(=O)[C@H](C(C)C)NC1=O` [G, reference compound] (Ac-ICVWQDWGEHRCS-NH2; disulfide 2-12) gave a pIC50 [2] of 6.74.
For `CC[C@H](C)[C@H](NC(=O)[C@H](C)NC(=O)[C@H](CO)NC(=O)CNC(=O)[C@H](CCC(=O)O)NC(C)=O)C(=O)N[C@H]1CSSC[C@@H](C(=O)N(C)CC(=O)N[C@@H](CCC(=O)O)C(N)=O)NC(=O)[C@H](CCCNC(=N)N)NC(=O)[C@H](Cc2c[nH]cn2)NC(=O)[C@H](CCC(=O)O)NC(=O)CNC(=O)[C@H](Cc2c[nH]c3ccccc23)NC(=O)[C@H](CC(=O)O)NC(=O)[C@H](CCC(N)=O)NC(=O)[C@H](Cc2c[nH]c3ccccc23)NC(=O)[C@H](C(C)C)NC1=O` [H, reference compound] (Ac-EGSAICVWQDWGEHRC[Sar]E-NH2; disulfide 6-16), the pIC50 [2] was 6.48.

Source: patent US11965039B2, “Compstatin analogues and their medical uses” (priority 2018, dated 2024)
